From patent US8932597B2 (priority 2008, dated 2015)

How the values were obtained:
[1] = system: anti-M2 human monoclonal antibody Z3G1; type: binding
[2] = system: HuM2e antibody 23K12; type: binding, human

## 449 (SLNTEVETPIRNEWGCRCNDSSD; epitope peptide) [compound 449]
[1]
  Signal (peptides that show specific binding to Z3G1): 1908
[2]
  Signal (peptides that bind to 23K21 and 8I10): 1333

## 450 (SLLTEVEHPIRNEWGCRCNDSSD; epitope peptide) [compound 450]
[1]
  Signal (peptides that show specific binding to Z3G1): 2241
[2]
  Signal (peptides that bind to 23K21 and 8I10): 1331

## 451 (CSLLTEVGMSLLTEC; epitope peptide) [compound 451]
[1]
  Signal (peptides that bind to Z3G1): 2613
[2]
  Signal (peptides that bind to 23K21 and 8I10): 1326

## 452 (SLLTEVGSLLTEC; epitope peptide) [compound 452]
[1]
  Signal (peptides that show specific binding to Z3G1): 1862
[2]
  Signal (peptides that bind to 23K21 and 8I10): 1326

## 453 (SLLTEVETPIRNEAGCRCNDSSD; epitope peptide) [compound 453]
[1]
  Signal (peptides that show specific binding to Z3G1): 2383
[2]
  Signal (peptides that bind to 23K21 and 8I10): 1311

## 454 (SLLTEVETPIMNEWGCRCNDSSD; epitope peptide) [compound 454]
[1]
  Signal (peptides that show specific binding to Z3G1): 2369
[2]
  Signal (peptides that bind to 23K21 and 8I10): 1308

## 456 (CSLLTECGMSLLCEV; epitope peptide) [compound 456]
[1]
  Signal (peptides that bind to Z3G1): 1640
[2]
  Signal (peptides that bind to 23K21 and 8I10): 1294

## 457 (SLLTEVETPMRNEWGCRCNDSSD; epitope peptide) [compound 457]
[1]
  Signal (peptides that show specific binding to Z3G1): 2297
[2]
  Signal (peptides that bind to 23K21 and 8I10): 1281

## 459 (SLITEVETPIRNEWGCRCNDSSD; epitope peptide) [compound 459]
[1]
  Signal (peptides that show specific binding to Z3G1): 1996
[2]
  Signal (peptides that bind to 23K21 and 8I10): 1277

## 460 (MSLLTECGMSLLCEV; epitope peptide) [compound 460]
[1]
  Signal (peptides that bind to Z3G1): 2373
[2]
  Signal (peptides that bind to 23K21 and 8I10): 1268

## 461 (SLLTEVETPLRNEWGCRCNDSSD; epitope peptide) [compound 461]
[1]
  Signal (peptides that show specific binding to Z3G1): 2239
[2]
  Signal (peptides that bind to 23K21 and 8I10): 1268

## 464 (SLLTEVGSLCTEV; epitope peptide) [compound 464]
[1]
  Signal (peptides that show specific binding to Z3G1): 2219
[2]
  Signal (peptides that bind to 23K21 and 8I10): 1256

## 465 (SLLTEVETPIRNEWGCRCNKSSD; epitope peptide) [compound 465]
[1]
  Signal (peptides that bind to Z3G1): 2597
[2]
  Signal (peptides that bind to 23K21 and 8I10): 1254

## 467 (SLLTEVENPIRNEWGCRCNDSSD; epitope peptide) [compound 467]
[1]
  Signal (peptides that show specific binding to Z3G1): 2549
[2]
  Signal (peptides that bind to 23K21 and 8I10): 1245

## 470 (MSLLTEVGCSLLTEC; epitope peptide) [compound 470]
[1]
  Signal (peptides that bind to Z3G1): 2349
[2]
  Signal (peptides that bind to 23K21 and 8I10): 1227

## 473 (SLSTEVETPIRNEWGCRCNDSSD; epitope peptide) [compound 473]
[1]
  Signal (peptides that show specific binding to Z3G1): 2052
[2]
  Signal (peptides that bind to 23K21 and 8I10): 1217

## 476 (CSLLTEVGCSCLCEV; epitope peptide) [compound 476]
[1]
  Signal (peptides that bind to Z3G1): 1680
[2]
  Signal (peptides that bind to 23K21 and 8I10): 1206

## 477 (SLLTECGSLLCEV; epitope peptide) [compound 477]
[1]
  Signal (peptides that show specific binding to Z3G1): 2403
[2]
  Signal (peptides that bind to 23K21 and 8I10): 1206

## 482 (CLCTCVGSLLTEV; epitope peptide) [compound 482]
[1]
  Signal (peptides that show specific binding to Z3G1): 1953
[2]
  Signal (peptides that bind to 23K21 and 8I10): 1178

## 484 (SLVTEVETPIRNEWGCRCNDSSD; epitope peptide) [compound 484]
[1]
  Signal (peptides that show specific binding to Z3G1): 2029
[2]
  Signal (peptides that bind to 23K21 and 8I10): 1175

## 488 (SLLTEVETPIHNEWGCRCNDSSD; epitope peptide) [compound 488]
[1]
  Signal (peptides that show specific binding to Z3G1): 2121
[2]
  Signal (peptides that bind to 23K21 and 8I10): 1112

## 491 (SLLTEVETLIRNEWGCRCNDSSD; epitope peptide) [compound 491]
[1]
  Signal (peptides that show specific binding to Z3G1): 2225
[2]
  Signal (peptides that bind to 23K21 and 8I10): 1109

## 493 (SLLTEVETMIRNEWGCRCNDSSD; epitope peptide) [compound 493]
[1]
  Signal (peptides that show specific binding to Z3G1): 2320
[2]
  Signal (peptides that bind to 23K21 and 8I10): 1104

## 496 (SCLTEVGSLLCEV; epitope peptide) [compound 496]
[1]
  Signal (peptides that show specific binding to Z3G1): 1896
[2]
  Signal (peptides that bind to 23K21 and 8I10): 1095

## 499 (CSLLTEVGMSCLCEC; epitope peptide) [compound 499]
[1]
  Signal (peptides that bind to Z3G1): 2101
[2]
  Signal (peptides that bind to 23K21 and 8I10): 1066

## 500 (SCLTEVGSLLTEV; epitope peptide) [compound 500]
[1]
  Signal (peptides that show specific binding to Z3G1): 1610
[2]
  Signal (peptides that bind to 23K21 and 8I10): 1066

## 501 (SLLTEVETPIRNEWGCCCNDSSD; epitope peptide) [compound 501]
[1]
  Signal (peptides that show specific binding to Z3G1): 2515
[2]
  Signal (peptides that bind to 23K21 and 8I10): 1065

## 503 (SLLTEVETPIRNEWGCWCNDSSD; epitope peptide) [compound 503]
[1]
  Signal (peptides that show specific binding to Z3G1): 2437
[2]
  Signal (peptides that bind to 23K21 and 8I10): 1061

## 504 (SLLTEVETPIRNEWGFRCNDSSD; epitope peptide) [compound 504]
[1]
  Signal (peptides that show specific binding to Z3G1): 2349
[2]
  Signal (peptides that bind to 23K21 and 8I10): 1057

## 506 (SLCTEVGSLLCEV; epitope peptide) [compound 506]
[1]
  Signal (peptides that show specific binding to Z3G1): 1863
[2]
  Signal (peptides that bind to 23K21 and 8I10): 1050

## 508 (MSLCTEVGCSLLTEV; epitope peptide) [compound 508]
[1]
  Signal (peptides that bind to Z3G1): 2832
[2]
  Signal (peptides that bind to 23K21 and 8I10): 1049

## 509 (SLLTEVETPIYNEWGCRCNDSSD; epitope peptide) [compound 509]
[1]
  Signal (peptides that show specific binding to Z3G1): 2296
[2]
  Signal (peptides that bind to 23K21 and 8I10): 1049

## 510 (SLRTEVETPIRNEWGCRCNDSSD; epitope peptide) [compound 510]
[1]
  Signal (peptides that show specific binding to Z3G1): 1034
[2]
  Signal (peptides that bind to 23K21 and 8I10): 1047

## 511 (SLLCEVGCSLLTEV; epitope peptide) [compound 511]
[1]
  Signal (peptides that show specific binding to Z3G1): 2562
[2]
  Signal (peptides that bind to 23K21 and 8I10): 1044

## 512 (SLLTEVETPIRNQWGCRCNDSSD; epitope peptide) [compound 512]
[1]
  Signal (peptides that show specific binding to Z3G1): 2402
[2]
  Signal (peptides that bind to 23K21 and 8I10): 1039

## 513 (MCLLTEVGMSLLTEV; epitope peptide) [compound 513]
[1]
  Signal (peptides that bind to Z3G1): 2697
[2]
  Signal (peptides that bind to 23K21 and 8I10): 1032

## 516 (SLLTEVETPIRNEWGCRCPDSSD; epitope peptide) [compound 516]
[1]
  Signal (peptides that bind to Z3G1): 2449
[2]
  Signal (peptides that bind to 23K21 and 8I10): 1024

## 517 (SLLTEVETPIRNEMGCRCNDSSD; epitope peptide) [compound 517]
[1]
  Signal (peptides that show specific binding to Z3G1): 2398
[2]
  Signal (peptides that bind to 23K21 and 8I10): 1020

## 519 (SLLTEVETPIRNEWGCRSNDSSD; epitope peptide) [compound 519]
[1]
  Signal (peptides that show specific binding to Z3G1): 2344
[2]
  Signal (peptides that bind to 23K21 and 8I10): 1016

## 520 (VLLTEVETPIRNEWGCRCNDSSD; epitope peptide) [compound 520]
[1]
  Signal (peptides that show specific binding to Z3G1): 1758
[2]
  Signal (peptides that bind to 23K21 and 8I10): 1014

## 522 (SLLTMVETPIRNEWGCRCNDSSD; epitope peptide) [compound 522]
[1]
  Signal (peptides that show specific binding to Z3G1): 1244
[2]
  Signal (peptides that bind to 23K21 and 8I10): 1011

## 524 (SLLTEVETPIDNEWGCRCNDSSD; epitope peptide) [compound 524]
[1]
  Signal (peptides that show specific binding to Z3G1): 2337
[2]
  Signal (peptides that bind to 23K21 and 8I10): 1001

## 525 (SLLTEVGCSCLCEV; epitope peptide) [compound 525]
[1]
  Signal (peptides that show specific binding to Z3G1): 1829
[2]
  Signal (peptides that bind to 23K21 and 8I10): 996

## 527 (SLLTEVEQPIRNEWGCRCNDSSD; epitope peptide) [compound 527]
[1]
  Signal (peptides that show specific binding to Z3G1): 2344
[2]
  Signal (peptides that bind to 23K21 and 8I10): 986

## 528 (MSLLTCVGCSLLTEV; epitope peptide) [compound 528]
[1]
  Signal (peptides that bind to Z3G1): 2467
[2]
  Signal (peptides that bind to 23K21 and 8I10): 978

## 529 (SLLTEVETNIRNEWGCRCNDSSD; epitope peptide) [compound 529]
[1]
  Signal (peptides that show specific binding to Z3G1): 2253
[2]
  Signal (peptides that bind to 23K21 and 8I10): 978

## 532 (MSCLTEVGMSLLTEV; epitope peptide) [compound 532]
[1]
  Signal (peptides that bind to Z3G1): 2336
[2]
  Signal (peptides that bind to 23K21 and 8I10): 968

## 533 (CSLLTEVGSCLCEC; epitope peptide) [compound 533]
[1]
  Signal (peptides that show specific binding to Z3G1): 2625
[2]
  Signal (peptides that bind to 23K21 and 8I10): 963

## 534 (SLLTEVEKPIRNEWGCRCNDSSD; epitope peptide) [compound 534]
[1]
  Signal (peptides that show specific binding to Z3G1): 2505
[2]
  Signal (peptides that bind to 23K21 and 8I10): 963

## 535 (SLLTEVETPIRNEWGCRCNFSSD; epitope peptide) [compound 535]
[1]
  Signal (peptides that bind to Z3G1): 2509
[2]
  Signal (peptides that bind to 23K21 and 8I10): 963

## 536 (MCLCTCVGCSLLTEV; epitope peptide) [compound 536]
[1]
  Signal (peptides that bind to Z3G1): 2241
[2]
  Signal (peptides that bind to 23K21 and 8I10): 954

## 537 (SLLTEVEPPIRNEWGCRCNDSSD; epitope peptide) [compound 537]
[1]
  Signal (peptides that show specific binding to Z3G1): 2522
[2]
  Signal (peptides that bind to 23K21 and 8I10): 953

## 538 (LLLTEVETPIRNEWGCRCNDSSD; epitope peptide) [compound 538]
[1]
  Signal (peptides that show specific binding to Z3G1): 1399
[2]
  Signal (peptides that bind to 23K21 and 8I10): 950

## 542 (MSLCTEVGMSLLTCV; epitope peptide) [compound 542]
[1]
  Signal (peptides that bind to Z3G1): 2722
[2]
  Signal (peptides that bind to 23K21 and 8I10): 927

## 543 (MSLLTCVGMSLLTEV; epitope peptide) [compound 543]
[1]
  Signal (peptides that bind to Z3G1): 2627
[2]
  Signal (peptides that bind to 23K21 and 8I10): 925

## 544 (SLLTEVETPIRNEWGCRCRDSSD; epitope peptide) [compound 544]
[1]
  Signal (peptides that bind to Z3G1): 2447
[2]
  Signal (peptides that bind to 23K21 and 8I10): 924

## 545 (SLLTEVSTPIRNEWGCRCNDSSD; epitope peptide) [compound 545]
[1]
  Signal (peptides that show specific binding to Z3G1): 2288
[2]
  Signal (peptides that bind to 23K21 and 8I10): 923
